Assay results taken from article PMC4767259 (Journal of nuclear medicine : official publication, Society …, 2015).

Tests used:
[1] = system: leg muscles (lateral gastrocnemius) and systemic muscles (spinotrapezius); test: 18F-FDG uptake PET imaging of muscles, SUV time-activity curve slope analysis; type: in vivo, CD IGS rats; settings: SF group: insulin 3.39-48.48 IU/kg into tail vein, n = 3, mean ± SD
[2] = intraarterial (left femoral artery) intervention, insulin 0.34-0.38 IU/kg, rats

In the case of Insulin, the “baseline of the 18F-FDG uptake SUVs” value [1] is reported as 0.7547 ± 0.1208 and the Adverse events [2] is reported as “No adverse events were observed”.
